Laboratory results from patent US12391698B2, “Substituted piperidines and piperazines and methods for the treatment of CNS disorders” (SUVEN LIFE SCIENCES LIMITED, priority 2022, dated 2025).
Where a name gives a salt, the structure may show the parent alone. Read-outs that look alike come from different tables or passages of the source.

Legend:
[1] = target: T1, cloned human 5-HT1A receptor (Homo sapiens, UniProt P08908); test: Determination of Ki at 5-HT1A receptor (radioligand binding, [3H]-8-Hydroxy DPAT); settings: HEK293-EBNA recombinant cells; [3H]-8-Hydroxy DPAT 0.8 nM; read-out: Ki h5-HT1A
T1 construct: expressed in transfected cells; host or cells: HEK293-EBNA
T1 sequence (P08908 1-422): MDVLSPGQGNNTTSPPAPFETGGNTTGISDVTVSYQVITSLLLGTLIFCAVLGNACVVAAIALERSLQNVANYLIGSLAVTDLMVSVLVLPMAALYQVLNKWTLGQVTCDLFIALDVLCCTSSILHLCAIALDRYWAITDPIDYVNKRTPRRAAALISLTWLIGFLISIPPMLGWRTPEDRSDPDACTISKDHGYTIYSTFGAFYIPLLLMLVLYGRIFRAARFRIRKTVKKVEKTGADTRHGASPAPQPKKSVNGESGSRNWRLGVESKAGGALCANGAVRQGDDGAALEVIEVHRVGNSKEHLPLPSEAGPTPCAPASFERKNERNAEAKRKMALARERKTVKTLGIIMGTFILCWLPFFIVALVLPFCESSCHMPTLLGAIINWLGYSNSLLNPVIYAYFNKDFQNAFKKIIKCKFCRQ
Protocol: (§1) Compounds were tested according to the following procedure.
(§2) • Receptor source: Recombinant mammalian cells (HEK293-EBNA) • Radioligand: [^3H]-8-Hydroxy DPAT (200 Ci/mmol) • Final ligand concentration: 0.8 nM • Non-specific determinant: 0.1 mM U92016A • Reference compound: U92016A • Positive control: U92016A Incubation Conditions:
(§3) Reactions were carried out in buffer with pH 7.4 containing 50 mM Tris-HCl, 0.5 mM EDTA, 10 mM MgSO4, 0.1% Ascorbic acid for 2 h at r.t. The reaction was terminated by rapid vacuum filtration onto the glass fiber filters. Radioactivity trapped onto the filters was determined and compared to the control values in order to ascertain any interactions of the test compound(s) with cloned human 5-HT1A receptor binding site.

[2] = target: T2, cloned human 5-HT2A receptor (Homo sapiens, UniProt P28223); test: Determination of Ki at 5-HT2A receptor (radioligand binding, [3H]-Ketanserine); settings: CHO-K1 recombinant cells; [3H]-Ketanserine 1.25 nM; read-out: Ki h5-HT2A
T2 construct: expressed in transfected cells; host or cells: CHO-K1
T2 sequence (P28223 whole entry): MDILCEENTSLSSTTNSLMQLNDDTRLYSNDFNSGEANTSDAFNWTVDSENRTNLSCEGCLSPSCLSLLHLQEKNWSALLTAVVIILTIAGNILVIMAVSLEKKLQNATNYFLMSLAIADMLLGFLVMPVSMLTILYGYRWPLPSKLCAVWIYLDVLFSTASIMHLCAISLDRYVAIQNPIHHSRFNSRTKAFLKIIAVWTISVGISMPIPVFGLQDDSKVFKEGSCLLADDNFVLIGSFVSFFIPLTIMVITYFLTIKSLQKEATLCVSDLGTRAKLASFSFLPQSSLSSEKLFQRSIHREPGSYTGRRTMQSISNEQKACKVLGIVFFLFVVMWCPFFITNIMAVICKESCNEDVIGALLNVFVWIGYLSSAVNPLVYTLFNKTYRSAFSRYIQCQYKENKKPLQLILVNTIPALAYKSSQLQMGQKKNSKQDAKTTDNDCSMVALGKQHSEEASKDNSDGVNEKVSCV
Protocol: as §1
as §2, with “(CHO-K1)” for “(HEK293-EBNA)”, “[^3H]-Ketanserine (41.9” for “[^3H]-8-Hydroxy DPAT (200”, “1.25” for “0.8”, “1-Napthyl piperazine (1-NP)” for “U92016A”
as §3, with “4” for “0.5”, “CaCl2),” for “EDTA, 10 mM MgSO4,”, “1” for “2”, “5-HT2A” for “5-HT1A”

[3] = target: T3, hD2S (cloned human dopamine D2S receptor) (Homo sapiens, UniProt P14416); test: Determination of Ki at D2S receptor (radioligand binding, [3H]-Raclopride); settings: CHO-K1 recombinant cells; [3H]-Raclopride 4 nM; read-out: Ki hD2S
T3 construct: expressed in transfected cells; host or cells: CHO-K1
T3 sequence (P14416 1-414 isoform P14416-2): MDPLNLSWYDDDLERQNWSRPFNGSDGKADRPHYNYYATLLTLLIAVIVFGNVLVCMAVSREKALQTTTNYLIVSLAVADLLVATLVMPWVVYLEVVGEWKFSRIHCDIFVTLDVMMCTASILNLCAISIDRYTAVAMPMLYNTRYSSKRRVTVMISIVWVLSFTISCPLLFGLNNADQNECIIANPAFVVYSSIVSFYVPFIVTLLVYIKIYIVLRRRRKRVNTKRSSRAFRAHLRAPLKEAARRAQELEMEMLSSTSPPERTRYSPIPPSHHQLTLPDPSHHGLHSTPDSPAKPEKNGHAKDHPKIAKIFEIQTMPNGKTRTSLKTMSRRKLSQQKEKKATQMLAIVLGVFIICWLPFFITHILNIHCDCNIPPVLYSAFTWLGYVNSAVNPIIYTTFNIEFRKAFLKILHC
Protocol: as §1
• Receptor source: Recombinant mammalian cells (CHO-K1) • Radioligand: [^3H]-Raclopride (80.8 Ci/mmol) • Final ligand concentration: 4 nM • Non-specific determinant: 0.1 mM Haloperidol • Reference compound: Haloperidol • Positive control: Haloperidol Incubation Conditions:
as §3, with “120” for “0.5”, “NaCl, 5” for “EDTA, 10”, “KCl, 5 mM MgCl2, 1 mM EDTA” for “MgSO4, 0.1% Ascorbic acid”, “dopamine […]” for “5-HT1A”

[4] = target: cloned human SERT receptor (Homo sapiens, UniProt P31645); test: Determination of Ki at SERT receptor (SPA binding, [3H]-Citalopram); settings: HEK293 recombinant cells, [3H]-Citalopram 2 nM, read-out: Ki hSERT
Sequence of cloned human SERT receptor (P31645 whole entry): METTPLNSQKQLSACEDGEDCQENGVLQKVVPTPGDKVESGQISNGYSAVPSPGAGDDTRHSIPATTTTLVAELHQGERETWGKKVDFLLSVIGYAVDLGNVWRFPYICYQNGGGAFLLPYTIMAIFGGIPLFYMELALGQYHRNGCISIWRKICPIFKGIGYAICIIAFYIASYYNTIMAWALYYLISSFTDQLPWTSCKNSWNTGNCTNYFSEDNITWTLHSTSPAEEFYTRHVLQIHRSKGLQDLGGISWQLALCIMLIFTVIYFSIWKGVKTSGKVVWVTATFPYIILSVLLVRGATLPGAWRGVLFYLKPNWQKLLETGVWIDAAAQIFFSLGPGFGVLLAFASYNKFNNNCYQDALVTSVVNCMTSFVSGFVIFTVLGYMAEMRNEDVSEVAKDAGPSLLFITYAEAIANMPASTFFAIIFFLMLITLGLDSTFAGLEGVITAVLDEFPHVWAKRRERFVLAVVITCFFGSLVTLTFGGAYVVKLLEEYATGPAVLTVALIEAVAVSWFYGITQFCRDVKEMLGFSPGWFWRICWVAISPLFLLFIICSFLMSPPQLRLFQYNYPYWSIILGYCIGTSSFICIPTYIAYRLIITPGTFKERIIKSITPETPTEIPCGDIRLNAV
Protocol: as §1
• Receptor source: Recombinant mammalian cells (HEK293) • Radioligand: [^3H]-Citalopram (80.8 Ci/mmol) • Final ligand concentration: 2 nM • Non-specific determinant: 0.1 mM Venlafaxine • Reference compound: Venlafaxine • Positive control: Venlafaxine Incubation Conditions:
Reactions were carried out in buffer with pH 7.4 containing 50 mM Tris-HCl, 150 mM NaCl, 5 mM KCl and scintillation proximity assay (SPA) beads (0.1 mg/well) for 3 h at r.t. Radioactivity proximal to SPA beads was determined by scintillation proximity assay and compared to the control values in order to ascertain any interactions of the test compound(s) with cloned human SERT receptor binding site.
Reference: Journal of Pharmacology and Experimental Therapeutics, 1987, 242 (1), 364-371.

[5] = Rodent brain penetration study; assay type: in vivo; settings: rat, brain/plasma, po, fed male Wistar rats, 3 mg/kg p.o., mean ± S.D, n = 3, read-out: Rat Brain Penetration (Cbrain/Cplasma) at 3 mg/kg, p.o. @ 1 h
Protocol: Male Wistar rats (260±40 g) were used as experimental animals. Three animals were housed in each cage. Animals were given water and food ad libitum throughout the experiment and maintained on a 12 h light/dark cycle.
Brain penetration was determined in discrete manner in rats. One day prior to dosing, male Wistar rats were acclimatized and randomly grouped according to their body weight. At each time point (0.50, 1 and 2 h), n=3 animals were used.
The test compounds were suitably preformulated and administered orally at (free base equivalent) 3 mg/kg. Blood samples were removed via cardiac puncture under isoflurane anesthesia. The animals were sacrificed to collect brain tissue. Plasma was separated and brain samples were homogenized. Plasma and brain homogenates were stored frozen at −20° C. until analysis. The concentrations of the test compounds in plasma and brain were determined using LC-MS/MS method.
The test compounds were quantified in plasma and brain homogenate by qualified LC-MS/MS method using suitable extraction technique in the calibration range of 1-500 ng/mL. Study samples were analyzed using calibration samples in the batch and quality control samples spread across the batch. Extent of brain-plasma ratio (Cbrain/Cplasma) was calculated.

[6] = Rodent pharmacokinetic study; assay type: in vivo, Male Wistar rats; settings: rat, plasma, mean ± S.D, n = 3; for bioavailability: oral 3 mg/kg vs intravenous 1 mg/kg, read-out: F (Bioavailability)
Protocol: Male Wistar rats (260±50 g) were used as experimental animals. Animals were housed individually in polypropylene cage. Two days prior to study, male Wistar rats were anesthetized with isoflurane for surgical placement of jugular vein catheter. Rats were randomly divided for oral (3 mg/kg) and intravenous (1 mg/kg) dosing (n=3/group) and fasted overnight before oral dosing (p.o.). However, food and water were provided ad libitum to the rats allocated for intravenous dosing.
At pre-determined time points, blood samples were collected through jugular vein and replenished with an equivalent volume of normal saline. Collected blood was transferred into a labeled eppendorf tube containing 10 μL of heparin as an anticoagulant. Typically blood samples were collected at 0.08, 0.25, 0.5, 1, 2, 4, 6, 8, and 24 h post dose. Blood samples were centrifuged at 4000 rpm for 10 min. Plasma was separated and stored frozen at −80° C. until analysis. The concentrations of the test compounds were quantified in plasma by qualified LC-MS/MS method using suitable extraction technique. The test compounds were quantified in the calibration range around 1-1000 ng/mL in plasma. Study samples were analyzed using calibration samples in the batch and quality control samples spread across the batch.
Pharmacokinetic parameters Cmax, AUCt, t1/2. Clearance and Bioavailability (F) were calculated using standard non-compartmental model by using Phoenix WinNonlin 6.0.4 version software package.

[7] = target: T4, recombinant rat 5-HT7 receptor (Rattus norvegicus, UniProt P32305); test: Determination of Kb at 5-HT7 receptor, pCRE-Luc reporter gene assay in CHO cells; assay type: cell-based
T4 construct: expressed in transfected cells
T4 sequence (P32305 whole entry): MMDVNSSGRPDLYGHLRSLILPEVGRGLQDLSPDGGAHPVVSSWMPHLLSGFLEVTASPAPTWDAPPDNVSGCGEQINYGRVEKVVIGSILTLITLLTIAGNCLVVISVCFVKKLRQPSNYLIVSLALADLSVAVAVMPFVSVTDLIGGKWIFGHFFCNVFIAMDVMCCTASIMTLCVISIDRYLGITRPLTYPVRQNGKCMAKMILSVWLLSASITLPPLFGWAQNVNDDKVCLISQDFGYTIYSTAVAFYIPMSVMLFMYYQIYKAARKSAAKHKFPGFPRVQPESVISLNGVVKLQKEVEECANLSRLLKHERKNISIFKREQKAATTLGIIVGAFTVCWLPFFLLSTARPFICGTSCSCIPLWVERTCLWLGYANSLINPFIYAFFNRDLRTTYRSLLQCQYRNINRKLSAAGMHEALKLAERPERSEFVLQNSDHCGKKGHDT

[8] = target: T4, recombinant rat 5-HT7 receptor; test: as above; assay type: cell-based; remark: listed apart in the source
Protocol: A stable CHO cell line expressing recombinant rat 5-HT7 receptor and pCRE-Luc reporter system was used for cell-based assay. The assay offers a non-radioactive based approach to determine binding of a compound to GPCRs. In this specific assay, the level of intracellular cAMP which is modulated by activation or inhibition of the receptor is measured. The recombinant cells harbor luciferase reporter gene under the control of cAMP response element.
The above cells were grown in 96 well clear bottom white plates in Hams F12 medium containing 10% fetal bovine serum (FBS). Prior to the addition of compounds or standard agonist, cells were serum starved overnight. Increasing concentrations of test compound were added along with 1 μM of serotonin in Opti-MEM medium to the cells. The incubation was continued at 37° C. in CO2 incubator for 4 hours. Medium was removed and cells were washed with phosphate buffered saline. The cells were lysed and luciferase activity was measured in a Luminometer. Luminescence units were plotted against the compound concentrations using GraphPad Prism software. EC50 values of the compounds were defined as the concentration required in reducing the luciferase activity by 50%. The Kb values were calculated by feeding the concentration of agonist used in the assay and its EC50 value in the same software.

dopamine receptor = test: Reserpine-induced dihydroxyphenylalanine (DOPA) accumulation assay in rat striatum; assay type: in vivo; settings: apomorphine 0.1 mg/kg, s.c., rat, reserpine 5.0 mg/kg
Protocol: Reserpine (5.0 mg/kg, s.c.) was injected, after which rats were fasted for 18 h before sacrifice. […] Each rat was sacrificed and the striatum was dissected out of the whole brain on ice. Each striatum was weighed and homogenized individually in buffer containing 0.01 N hydrochloric acid and 0.2 mg/ml L-cysteine. Supernatants were subjected for quantification of DOPA using HPLC coupled to electrochemical detector.

[9] = intravenous (bolus) 1 mg/kg, male Wistar rats
[10] = oral (gavage) 3 mg/kg, fasted male Wistar rats

SMILES	Ki [1] [nM]	Ki [2] [nM]	Ki [3] [nM]	Ki ([4]; cells printed in μM) [µM]	change in reserpine-induced DOPA accumulation in striatum (dopamine receptor)	Kp at 1 h [5]	AUC(0-t) [6, 9] [ng·h/mL]	clearance [6, 9] [mL/min/kg]	half-life [6, 9] [min]	bioavailability ([6]; male Wistar rats) [%]	AUC(0-t) [6, 10] [ng·h/mL]	Cmax [6, 10] [ng/mL]	half-life [6, 10] [min]	agonist activity at rat recombinant 5-HT7 receptor [7]	Ki [4] [µM]	antagonistic activity at rat recombinant 5-HT7 receptor ([8]; pCRE-Luc reporter gene assay)	Kb ([8]; rat receptor, with 1 μM serotonin, luciferase readout, read-out: Kb at 5-HT7 receptor) [nM]
O=C1C[C@@H]2CCCN2C(=O)N1CCCCN1CCC(c2noc3cc(F)ccc23)CC1 [Example 5, 2-{4-[4-(6-Fluoro-benzo[d]isoxazol-3-yl)-piperidin-1-yl]-butyl}-tetrahydro-pyrrolo[1,2-c]pyrimidine-1,3-dione]	14.7	0.7	7.3	> 10		1.06 ± 0.46	226 ± 11	74 ± 3.4	30 ± 6	22 ± 9	151 ± 61	152 ± 44	42 ± 6				
O=C1C[C@@H]2COCCN2C(=O)N1CCCCN1CCN(c2nsc3ccccc23)CC1 [Example 18, 7-[4-(4-Benzo[d]isothiazol-3-yl-piperazin-1-yl)-butyl]-tetrahydro-pyrimido[6,1-c][1,4]oxazine-6,8-dione oxalate]	0.8	4.2	6.5											no detectable agonist activity	1.74	antagonistic activity	1
O=C1C[C@H]2CCCN2C(=O)N1C[C@H]1CCCC[C@H]1CN1CCC(c2noc3cc(F)ccc23)CC1 [Example 29, 2-{2-[4-(6-Fluoro-benzo[d]isoxazol-3-yl)-piperidin-1-ylmethyl]-cyclohexylmethyl}-tetrahydro-pyrrolo[1,2-c]pyrimidine-1,3-dione oxalate]	10	0.8	0.2	> 10		2.73 ± 0.23	291 ± 17	57 ± 3	60 ± 6	4.6 ± 2	40 ± 15	37 ± 14	54 ± 6				
CC(C)N1CCN2C(=O)N(CCCCN3CCN(c4nsc5ccccc45)CC3)C(=O)C[C@H]2C1 [Example 40, 7-[4-(4-Benzo[d]isothiazol-3-yl-piperazin-1-yl)-butyl]-2-isopropyl-hexahydro-pyrazino[1,2-c]pyrimidine-6,8-dione fumarate]	0.5	1.6	5												1.25		

Further lines, with some results ahead:

Ki [1] [nM]	Ki [2] [nM]	Ki [3] [nM]	Ki ([4]; cells printed in μM) [µM]	change in reserpine-induced DOPA accumulation in striatum (dopamine receptor)	SMILES	Kp at 1 h [5]	AUC(0-t) [6, 9] [ng·h/mL]	clearance [6, 9] [mL/min/kg]	half-life [6, 9] [min]	bioavailability ([6]; male Wistar rats) [%]	AUC(0-t) [6, 10] [ng·h/mL]	Cmax [6, 10] [ng/mL]	half-life [6, 10] [min]	agonist activity at rat recombinant 5-HT7 receptor [7]	Ki [4] [µM]	antagonistic activity at rat recombinant 5-HT7 receptor ([8]; pCRE-Luc reporter gene assay)	Kb ([8]; rat receptor, with 1 μM serotonin, luciferase readout, read-out: Kb at 5-HT7 receptor) [nM]
8.7	11.6	37.3	> 10		O=C1C[C@@H]2CCCN2C(=O)N1CCCCN1CCC(c2noc3ccccc23)CC1 [Example 42, 2-{4-[4-(Benzo[d]isoxazol-3-yl)-piperidin-1-yl]-butyl}-tetrahydro-pyrrolo[1,2-c]pyrimidine-1,3-dione, oxalate]												
531	59.9	119	> 10		O=C1C[C@@H]2CCCN2C(=O)N1CCCN1CCC(c2noc3ccccc23)CC1 [Example 44, 2-[3-(4-Benzo[d]isoxazol-3-yl-piperidin-1-yl)-propyl]-tetrahydro-pyrrolo[1,2-c]pyrimidine-1,3-dione, oxalate]												
				significant decrease	CN1CCc2cccc3c2[C@H]1Cc1ccc(O)c(O)c1-3 [apomorphine, reference compound]												
